{
  "source": "patent US20120071513A1",
  "about": "“Compositions and Their Use as Anti-Tumor Agents” (COMPASS PHARMACEUTICALS LLC, priority 2004, published 2012)",
  "key": {"[1]": {"tested_on": "A375 human melanoma xenografts", "experiment": "in vivo anti-tumor activity, A375 xenografts", "parameters": "species or system mice", "details": "30 mg/kg", "description": "The in vivo anti-tumor activity of CP5017808 was evaluated against A375 human melanoma xenografts and ovarian carcinoma.\nCP5017808 was dissolved with heat and sonication in a 1:1 mixture of absolute ethanol and CREMAPHOR™ equivalent to 20% of the final desired volume, and then brought to a final volume with 40% hydroxypropyl-β-cyclodextin in water. CP5017808 produced a fine suspension with a pH of 6.2.\nFemale NCr nu/nu mice (Charles River Laboratory) were used for the study. They were 5-6 weeks old on Day 1 of the experiment. The animals were fed Rodent Diet 5010 (LabDiet™) and water ad libitum. The mice were housed in Thoren™ microisolator caging with Bed-O'Cobs™ bedding. […]\nBody weights and tumor measurements were recorded three times weekly. […] T/C values were calculated by dividing the treated median tumor mass by the median control tumor mass and multiplying by 100. […] Tumor Growth Delay (T-C) was also used to quantify efficacy. Tumor growth delay for this experiment was expressed as a T-C value, where T and C are the median times in days required for the treatment and control group tumors, respectively, to grow to a selected evaluation size, 750 mg.\nThe time for individual tumors to reach evaluation size, time to fold growth, and tumor volume doubling times were analyzed by a single factor ANOVA. […]"}, "[2]": {"tested_on": "A2780 human ovarian adenocarcinoma xenografts", "experiment": "in vivo anti-tumor activity, A2780 xenografts", "parameters": "species or system mice", "details": "15 mg/kg, Day 19, positive control", "description": "Body weights and tumor measurements were recorded three times weekly. Tumor burden (mg) was estimated from caliper measurements by the formula for the volume of a prolate ellipsoid assuming unit density as: Tumor burden (mg)=(L×W2)/2, where L and W are the respective orthogonal tumor length and width measurements (mm). The primary endpoints used to evaluate efficacy were study day 26 T/C values, complete and partial tumor responses, tumor growth delay, and the number of tumor-free survivors at the end of the study. T/C values were calculated by dividing the treated median tumor mass by the median control tumor mass and multiplying by 100. The USA National Cancer Institute (NCI) considers a compound which produces a % T/C value of 42 of less is active. Complete response (CR) is defined as a decrease in tumor mass to an undetectable size (<50 mg), and a partial response (PR) is defined as a ≧50% decrease in tumor mass from that at first treatment. […] Tumor Growth Delay (T-C) was also used to quantify efficacy. Tumor growth delay for this experiment was expressed as a T-C value, where T and C are the median times in days required for the treatment and control group tumors, respectively, to grow to a selected evaluation size, 750 mg. […]\nTest animals were implanted subcutaneously on day 0 with 30 to 60 mg A2780 tumor fragments. […] Tumor mass on day 19 was analyzed by a single factor ANOVA. […]"}},
  "data": [
    {"smiles": "CC(=O)O[C@@]12CO[C@@H]1C[C@H](O)[C@@]1(C)C(=O)[C@H](O)C3=C(C)[C@@H](OC(=O)[C@H](O)[C@@H](NC(=O)OC(C)(C)C)c4ccccc4)C[C@@](O)([C@@H](OC(=O)c4ccccc4)[C@H]21)C3(C)C", "note": "[docetaxel]", "values": [
      {"measurement": "tumor growth delay", "setting": "[1]; evaluation size 750 mg", "value": 10, "unit": "days"},
      {"measurement": "% T/C value", "setting": "[1]; study day 26, positive control", "value": 32, "unit": "%"}
    ]},
    {"smiles": "CC(=O)O[C@H]1C(=O)[C@@]2(C)[C@H]([C@H](OC(=O)c3ccccc3)[C@]3(O)C[C@H](OC(=O)[C@H](O)[C@@H](NC(=O)c4ccccc4)c4ccccc4)C(C)=C1C3(C)C)[C@]1(OC(C)=O)CO[C@@H]1C[C@@H]2O", "note": "[Taxol®]", "values": [
      {"measurement": "% T/C value", "setting": "[2]", "value": 15, "unit": "%"}
    ]}
  ]
}
